The target in this assay is T1, human ST6Gal-I (Homo sapiens, UniProt P15907).
T1 sequence (P15907 1-406): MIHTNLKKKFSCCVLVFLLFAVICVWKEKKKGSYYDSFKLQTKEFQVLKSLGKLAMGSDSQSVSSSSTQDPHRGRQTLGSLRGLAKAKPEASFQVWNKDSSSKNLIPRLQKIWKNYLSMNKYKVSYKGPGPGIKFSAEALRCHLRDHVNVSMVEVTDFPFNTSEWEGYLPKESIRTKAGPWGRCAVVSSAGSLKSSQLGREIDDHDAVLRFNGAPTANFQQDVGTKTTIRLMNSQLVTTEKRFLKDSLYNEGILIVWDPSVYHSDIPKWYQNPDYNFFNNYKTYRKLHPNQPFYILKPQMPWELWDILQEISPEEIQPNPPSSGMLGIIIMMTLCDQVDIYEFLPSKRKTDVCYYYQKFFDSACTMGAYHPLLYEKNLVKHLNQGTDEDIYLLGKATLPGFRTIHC
Description: sialyltransferase kinetics, donor varied. In kind it is biochemical. The following applies: read-out: ST6Gal-I / KM(app); acceptor LacNAc-butyl (11), fixed concentration.

In the case of CMP-Neu9NSydCl [compound 9], the Km came to 86 ± 21 µM.
